Data on three compounds can be found in US20130035314A1, “METHODS AND KITS FOR DETECTING RISK FACTORS FOR DEVELOPMENT OF JAW OSTEONECROSIS AND METHODS OF TREATMENT THEREOF” (priority 2010, published 2013).

Structures are written as SMILES.

A short description of data set [1]: Cohort study of multiple myeloma patients on IV BP: risk factors for BONJ (univariate and multivariate logistic regression). Type of data set: in vivo, human. Here is the method:
Multiple myeloma patients who were on intravenous BP (zoledronate or pamidronate) were recruited to voluntarily participate in this Institution Review Board (IRB) approved study. These patients signed informed consents and were followed routinely in the outpatient clinic. In addition to MM treatments, patients received either pamidronate 90mg or zoledronate 4mg IV monthly. Demographic and clinical information were verified from reviewing the medical records and tabled for analysis. Certain life style factors such as smoking at any time in the past, as well as certain co-morbidities such as diabetes mellitus, and prior drugs used were among the data collected on all patients.
Patients were considered to have BONJ if all of the following three characteristics are present (American Association of Oral and Maxillofacial Surgeons position paper, J Oral Maxillofac Surg, 65(3):369-76, 2007): 1) Current or previous treatment with a bisphosphonate; 2) Exposed bone in the maxillofacial region that has persisted for more than eight weeks; and 3) No history of radiation therapy to the jaws. […]
Baseline characteristics were compared by student's t-test or chi-square tests as appropriate. Allele frequencies deviations from Hardy-Weinberg Equilibrium (HWE) were assessed using chi-square tests with one degree of freedom. […]

The nature of data set [2]: Chart review of BONJ incidence in bisphosphonate-treated cancer patients. Type of data set: in vivo, human. The settings on record: outpatient bone marrow transplant clinic, all patients had myeloma; pamidronate only. The text has this:
Medical and dental charts at the University of Florida (UF) and the associated Veterans Administration Medical Center (VAMC) were reviewed. […] There were 21 males. […] Fourteen patients had modest increases in their serum creatinine concentrations. The average number of previous chemo/radiotherapy regimens was 3.5. […] Primary disease status was as follows: 12 patients in clinical remission, 5 with stable disease and 10 with progressive disease. Eight patients received statin therapy and 6 had diabetes mellitus. The median length of treatment with bisphosphonate (BP) before the diagnosis of BONJ was 28 months. BONJ involved the mandible in 21 patients, maxilla in 4 and both in 2 patients. The most frequent presentation was pain, swelling, and exposed bone (FIG. 1). […] The BONJ incidence differed among the 3 centers where these patients were treated. […] The incidence in the VAMC was 4.2% while the incidence in the Cancer Center clinic at UF was 1.7%. In the latter two groups, patients had mostly solid tumors. The results described herein are consistent with the reports of increased incidence of BONJ with greater duration of therapy and that myeloma patients are more likely to develop the complication than solid tumor patients.

In the case of `O=C1CCC(N2C(=O)c3ccccc3C2=O)C(=O)N1` (stereo not drawn) [Thalidomide], the “Odds Ratio for BONJ” value in data set [1] (multivariate logistic regression analysis of potential risk factors, MM patients on IV BP) was 0.106.
`O=P(O)(O)C(O)(Cn1ccnc1)P(=O)(O)O` [zoledronate]: in data set [1] (univariate analysis, persisted in multivariate logistic regression, P=0.00029, 78 MM patients, 12 with BONJ), the “association between BONJ and treatment” value is recorded as “significant association”.
`NCCC(O)(P(=O)(O)O)P(=O)(O)O` [pamidronate]: the BONJ incidence in data set [2] was determined as 4%.
